Experimental data taken from PubChem BioAssay (NCI).
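How tested: cells in 96-well plates exposed to compound for 48 hours at five concentrations. TGI is the concentration that stops growth completely.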

What was measured:
Experiment in all cases: DTP human tumour cell line panel, 48 h
HCT-116 colon = tested on: HCT-116 colon
RXF 393 renal = tested on: RXF 393 renal
MDA-MB-435 = tested on: MDA-MB-435
T-47D breast = tested on: T-47D breast
UACC-257 melanoma = tested on: UACC-257 melanoma
HCC-2998 colon = tested on: HCC-2998 colon
OVCAR-5 ovarian = tested on: OVCAR-5 ovarian
SF-539 CNS = tested on: SF-539 CNS
SK-MEL-2 melanoma = tested on: SK-MEL-2 melanoma
KM12 colon = tested on: KM12 colon
SK-MEL-5 melanoma = tested on: SK-MEL-5 melanoma
RPMI-8226 leukemia = tested on: RPMI-8226 leukemia
CAKI-1 renal = tested on: CAKI-1 renal
A549 NSCLC = tested on: A549 NSCLC
MDA-N = tested on: MDA-N
MCF7 breast = tested on: MCF7 breast
MOLT-4 leukemia = tested on: MOLT-4 leukemia
OVCAR-3 ovarian = tested on: OVCAR-3 ovarian
OVCAR-4 ovarian = tested on: OVCAR-4 ovarian
SF-268 CNS = tested on: SF-268 CNS
SK-OV-3 ovarian = tested on: SK-OV-3 ovarian
SNB-19 CNS = tested on: SNB-19 CNS
SK-MEL-28 melanoma = tested on: SK-MEL-28 melanoma
COLO 205 colon = tested on: COLO 205 colon
HOP-92 NSCLC = tested on: HOP-92 NSCLC
LOX IMVI melanoma = tested on: LOX IMVI melanoma
UO-31 renal = tested on: UO-31 renal
NCI-H460 lung = tested on: NCI-H460 lung
U251 CNS = tested on: U251 CNS
A498 renal = tested on: A498 renal
HCT-15 colon = tested on: HCT-15 colon
M14 melanoma = tested on: M14 melanoma
DU-145 prostate = tested on: DU-145 prostate
SN12C renal = tested on: SN12C renal
786-0 renal = tested on: 786-0 renal
BT-549 breast = tested on: BT-549 breast
SW-620 colon = tested on: SW-620 colon
SF-295 CNS = tested on: SF-295 CNS
ACHN renal = tested on: ACHN renal
MDA-MB-231 breast = tested on: MDA-MB-231 breast
TK-10 renal = tested on: TK-10 renal
NCI-H23 lung = tested on: NCI-H23 lung
UACC-62 melanoma = tested on: UACC-62 melanoma
SNB-75 CNS = tested on: SNB-75 CNS
HS 578T breast = tested on: HS 578T breast
CCRF-CEM leukemia = tested on: CCRF-CEM leukemia
PC-3 prostate = tested on: PC-3 prostate
K-562 leukemia = tested on: K-562 leukemia
NCI-H522 lung = tested on: NCI-H522 lung
IGROV1 ovarian = tested on: IGROV1 ovarian
HOP-62 NSCLC = tested on: HOP-62 NSCLC
MALME-3M melanoma = tested on: MALME-3M melanoma
EKVX NSCLC = tested on: EKVX NSCLC
HT29 colon = tested on: HT29 colon
OVCAR-8 ovarian = tested on: OVCAR-8 ovarian
SR leukemia = tested on: SR leukemia
NCI/ADR-RES ovarian = tested on: NCI/ADR-RES ovarian
HL-60(TB) leukemia = tested on: HL-60(TB) leukemia
NCI-H226 lung = tested on: NCI-H226 lung

SMILES: CC(C)(C)N1C(=O)N=[N+](/C(=C(\c2ccccc2)n2nc([O-])n(C(C)(C)C)c2=O)c2ccccc2)C1=O
- TGI (HCT-116 colon): > 100 µM
- TGI (RXF 393 renal): > 100 µM
- TGI (MDA-MB-435): > 100 µM
- TGI (T-47D breast): > 100 µM
- TGI (UACC-257 melanoma): > 100 µM
- TGI (HCC-2998 colon): > 100 µM
- TGI (OVCAR-5 ovarian): > 100 µM
- TGI (SF-539 CNS): > 100 µM
- TGI (SK-MEL-2 melanoma): > 100 µM
- TGI (KM12 colon): > 100 µM
- TGI (SK-MEL-5 melanoma): > 100 µM
- TGI (RPMI-8226 leukemia): > 100 µM
- TGI (CAKI-1 renal): > 100 µM
- TGI (A549 NSCLC): > 100 µM
- TGI (MDA-N): > 100 µM
- TGI (MCF7 breast): > 100 µM
- TGI (MOLT-4 leukemia): > 100 µM
- TGI (OVCAR-3 ovarian): > 100 µM
- TGI (OVCAR-4 ovarian): > 100 µM
- TGI (SF-268 CNS): > 100 µM
- TGI (SK-OV-3 ovarian): > 100 µM
- TGI (SNB-19 CNS): > 100 µM
- TGI (SK-MEL-28 melanoma): > 100 µM
- TGI (COLO 205 colon): > 100 µM
- TGI (HOP-92 NSCLC): > 100 µM
- TGI (LOX IMVI melanoma): > 100 µM
- TGI (UO-31 renal): > 100 µM
- TGI (NCI-H460 lung): > 100 µM
- TGI (U251 CNS): > 100 µM
- TGI (A498 renal): > 100 µM
- TGI (HCT-15 colon): > 100 µM
- TGI (M14 melanoma): > 100 µM
- TGI (DU-145 prostate): > 100 µM
- TGI (SN12C renal): > 100 µM
- TGI (786-0 renal): > 100 µM
- TGI (BT-549 breast): > 100 µM
- TGI (SW-620 colon): > 100 µM
- TGI (SF-295 CNS): > 100 µM
- TGI (ACHN renal): > 100 µM
- TGI (MDA-MB-231 breast): > 100 µM
- TGI (TK-10 renal): > 100 µM
- TGI (NCI-H23 lung): > 100 µM
- TGI (UACC-62 melanoma): > 100 µM
- TGI (SNB-75 CNS): > 100 µM
- TGI (HS 578T breast): > 100 µM
- TGI (CCRF-CEM leukemia): > 100 µM
- TGI (PC-3 prostate): > 100 µM
- TGI (K-562 leukemia): > 100 µM

SMILES: COc1cc2c3c(c1O)N=NC=3CCN=2
- TGI (HCT-116 colon): 28.1 µM
- TGI (MDA-MB-435): 24.5 µM
- TGI (T-47D breast): 23.3 µM
- TGI (UACC-257 melanoma): 29.1 µM
- TGI (HCC-2998 colon): > 100 µM
- TGI (OVCAR-5 ovarian): 34.4 µM
- TGI (NCI-H522 lung): 19.4 µM
- TGI (SF-539 CNS): 35.5 µM
- TGI (SK-MEL-2 melanoma): 30.9 µM
- TGI (KM12 colon): 88.4 µM
- TGI (IGROV1 ovarian): 34 µM
- TGI (SK-MEL-5 melanoma): 32.5 µM
- TGI (RPMI-8226 leukemia): 31.1 µM
- TGI (HOP-62 NSCLC): 97.3 µM
- TGI (A549 NSCLC): 66.4 µM
- TGI (MDA-N): 25.1 µM
- TGI (MALME-3M melanoma): 30.2 µM
- TGI (MCF7 breast): 20.2 µM
- TGI (MOLT-4 leukemia): 50.4 µM
- TGI (OVCAR-3 ovarian): 31 µM
- TGI (EKVX NSCLC): 30.7 µM
- TGI (SNB-19 CNS): > 100 µM
- TGI (SK-MEL-28 melanoma): 32.1 µM
- TGI (COLO 205 colon): 35.2 µM
- TGI (HT29 colon): 28.8 µM
- TGI (LOX IMVI melanoma): 18 µM
- TGI (UO-31 renal): 62.5 µM
- TGI (NCI-H460 lung): 80.1 µM
- TGI (OVCAR-8 ovarian): 30.9 µM
- TGI (U251 CNS): 30.6 µM
- TGI (A498 renal): 75.4 µM
- TGI (HCT-15 colon): > 100 µM
- TGI (M14 melanoma): 28.8 µM
- TGI (SN12C renal): 29.3 µM
- TGI (786-0 renal): 32.7 µM
- TGI (BT-549 breast): 31.7 µM
- TGI (SR leukemia): 42.3 µM
- TGI (SW-620 colon): 31.7 µM
- TGI (NCI/ADR-RES ovarian): > 100 µM
- TGI (SF-295 CNS): 50.9 µM
- TGI (ACHN renal): 33.8 µM
- TGI (HL-60(TB) leukemia): 14.8 µM
- TGI (MDA-MB-231 breast): 29.8 µM
- TGI (TK-10 renal): 52.3 µM
- TGI (NCI-H23 lung): 38.2 µM
- TGI (UACC-62 melanoma): 30.7 µM
- TGI (HS 578T breast): > 100 µM
- TGI (PC-3 prostate): 84.8 µM
- TGI (K-562 leukemia): 18.3 µM

SMILES: CC(=O)c1ccc(NC(=O)/C(CC(=O)/C=C/c2ccccc2)=N/NC(N)=S)cc1
- TGI (HCT-116 colon): > 100 µM
- TGI (RXF 393 renal): > 100 µM
- TGI (MDA-MB-435): > 100 µM
- TGI (T-47D breast): > 100 µM
- TGI (UACC-257 melanoma): > 100 µM
- TGI (HCC-2998 colon): > 100 µM
- TGI (OVCAR-5 ovarian): > 100 µM
- TGI (NCI-H522 lung): > 100 µM
- TGI (SF-539 CNS): > 100 µM
- TGI (SK-MEL-2 melanoma): > 100 µM
- TGI (KM12 colon): > 100 µM
- TGI (IGROV1 ovarian): > 100 µM
- TGI (SK-MEL-5 melanoma): > 100 µM
- TGI (RPMI-8226 leukemia): > 100 µM
- TGI (HOP-62 NSCLC): > 100 µM
- TGI (CAKI-1 renal): > 100 µM
- TGI (NCI-H226 lung): > 100 µM
- TGI (A549 NSCLC): > 100 µM
- TGI (MDA-N): > 100 µM
- TGI (MALME-3M melanoma): > 100 µM
- TGI (MCF7 breast): > 100 µM
- TGI (MOLT-4 leukemia): > 100 µM
- TGI (OVCAR-3 ovarian): > 100 µM
- TGI (EKVX NSCLC): > 100 µM
- TGI (OVCAR-4 ovarian): > 100 µM
- TGI (SF-268 CNS): > 100 µM
- TGI (SK-OV-3 ovarian): > 100 µM
- TGI (SK-MEL-28 melanoma): > 100 µM
- TGI (HT29 colon): > 100 µM
- TGI (HOP-92 NSCLC): > 100 µM
- TGI (LOX IMVI melanoma): > 100 µM
- TGI (UO-31 renal): > 100 µM
- TGI (NCI-H460 lung): > 100 µM
- TGI (OVCAR-8 ovarian): > 100 µM
- TGI (U251 CNS): > 100 µM
- TGI (A498 renal): > 100 µM
- TGI (HCT-15 colon): > 100 µM
- TGI (M14 melanoma): > 100 µM
- TGI (SN12C renal): > 100 µM
- TGI (786-0 renal): > 100 µM
- TGI (BT-549 breast): > 100 µM
- TGI (SR leukemia): > 100 µM
- TGI (SW-620 colon): > 100 µM
- TGI (NCI/ADR-RES ovarian): > 100 µM
- TGI (SF-295 CNS): > 100 µM
- TGI (ACHN renal): > 100 µM
- TGI (HL-60(TB) leukemia): > 100 µM
- TGI (MDA-MB-231 breast): > 100 µM
- TGI (TK-10 renal): > 100 µM
- TGI (NCI-H23 lung): > 100 µM
- TGI (UACC-62 melanoma): > 100 µM
- TGI (SNB-75 CNS): > 100 µM
- TGI (HS 578T breast): > 100 µM
- TGI (PC-3 prostate): > 100 µM
- TGI (K-562 leukemia): > 100 µM
